The source of these data is patent US20060024661A1, “Modulation of CRF potentiation of NMDA receptor currents via CRF receptor 2” (The Regents of the University of California, priority 2003, published 2006).

“Also recorded” adds a separate entry of the source. Where no end group is shown, it is not given here.

The subject of experiment [1] is NMDAR-mediated EPSCs in VTA dopamine neurons. Briefly: NMDAR-mediated EPSCs, whole-cell voltage-clamp in VTA slices. Conditions: for potentiation of NMDAR-mediated EPSCs: +40 mV. The class given is cell-based, mice. The procedure: VTA slices from 21-29 day old C57 mice (Charles River) were prepared as previously described (Ungless et al. (2001). Nature 411: 584-587). Briefly, mice were anesthetized with halothane and then decapitated. A block of tissue containing midbrain was sliced in the horizontal plane (230 μm) in ice-cold low Ca^2+ solution (containing in mM: 126 NaCl, 1.6 KCl, 1.2 NaH2PO4, 1.2 MgCl2, 0.625 CaCl2, 18 NaHCO3 and 11 glucose). Slices were transferred to a holding chamber containing artificial cerebrospinal fluid (ACSF, in mM: 126 NaCl, 1.6 KCl, 1.2 NaH2PO4, 1.2 MgCl2, 2.5 CaCl2, 18 NaHCO3 and 11 glucose) and equilibrated at 31-34° C. for at least 1 h. Picrotoxin (100 μM) was added to the ACSF for recording, to block GABAA receptor-mediated inhibitory postsynaptic potentials. All solutions were aerated with 95% O2/5% CO2, and perfused over the slice at a rate of 2.5 ml/min. Cells were visualized with an upright microscope using infrared differential interference contrast (IR-DIC) illumination and whole-cell voltage-clamp recordings were made with an Axopatch 1D amplifier (Axon Instruments). Electrodes (2-4 MΩ) contained in mM: 117 cesium methansulfonic acid, 20 HEPES, 0.4 EGTA, 2.8 NaCl, 5 TEA-Cl, 2.5 MgATP, 0.25 MgGTP, pH 7.2-7.4, 275-285 mOsm. Dopamine cells were identified by the presence of an Ih current. A bipolar stimulating electrode was placed 100-300 μm rostral to the recording electrode and was used to stimulate excitatory afferents at 0.1 Hz. Neurons were voltage-clamped at +40 mV. Coronal hippocampal slices were also prepared and maintained in a similar manner. Extracellular field potentials were recorded in the CA1 region and evoked by stimulating the stratum radiatum. All drugs were obtained from Sigma, except human/rat CRF (Tocris), Antisauvagine-30 (PolyPeptide) and CP-154,526 (a generous gift from Pfizer). CRF fragment (6-33), ovine CRF, Antisauvagine-30, CP-154,526, U-73122 and Urocortin were first dissolved in DMSO (final concentration 0.1%). EPSCs were filtered at 2 kHz, digitized at 5-10 kHz and stored using Igor Pro software (Wavemetrics). AMPAR-mediated EPSCs were recorded at −70 mV; NMDAR-mediated EPSCs were recorded at +40 mV and measured 20 msec after the stimulation artifact when the EPSC is primarily NMDAR-mediated (11,13). Statistical significance was assessed using ANOVA on 5 min bins of EPSCs, and post hoc Fisher's LSD where appropriate.
We measured excitatory postsynaptic currents (EPSCs) recorded in putative dopamine neurons in midbrain slices from mice. EPSCs were evoked while holding neurons in voltage-clamp at +40 mV; measurements were taken at a time point when the EPSC is purely NMDA-receptor-mediated (see Methods) (Bonci and Malenka (1999). J Neurosci. 19: 3723-3730; Ungless et al. (2001). Nature 411: 584-587). […] To facilitate our subsequent investigation of the effects of CRF, we therefore sought to identify a characteristic that might help us determine, a priori, to which group a particular neuron belongs. […] We noticed that, typically, neurons that responded to CRF had large Ih currents (FIG. 1B). […] Henceforth, all subsequent experiments were conducted on cells with an Ih greater than 100 pA.

In experiment [2] the target is T1, CRF-BP (Homo sapiens, UniProt P24387).
T1 sequence (P24387 25-322): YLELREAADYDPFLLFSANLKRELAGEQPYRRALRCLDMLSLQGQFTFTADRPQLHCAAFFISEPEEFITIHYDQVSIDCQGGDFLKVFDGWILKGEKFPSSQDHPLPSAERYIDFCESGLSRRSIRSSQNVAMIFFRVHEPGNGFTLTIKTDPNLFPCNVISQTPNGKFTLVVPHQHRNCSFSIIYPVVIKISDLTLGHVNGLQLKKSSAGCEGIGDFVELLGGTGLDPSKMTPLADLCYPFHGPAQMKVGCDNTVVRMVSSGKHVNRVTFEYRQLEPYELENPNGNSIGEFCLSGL
Conditions: in words; cited from earlier work.

Experiment [3] concerns NMDARs. As to conditions: derived from cell lines; Patneau and Mayer 1990; cited from earlier work.
For experiment [4], the target named is T2, CRF-R1 (Homo sapiens, UniProt P34998).
T2 sequence (P34998 24-415): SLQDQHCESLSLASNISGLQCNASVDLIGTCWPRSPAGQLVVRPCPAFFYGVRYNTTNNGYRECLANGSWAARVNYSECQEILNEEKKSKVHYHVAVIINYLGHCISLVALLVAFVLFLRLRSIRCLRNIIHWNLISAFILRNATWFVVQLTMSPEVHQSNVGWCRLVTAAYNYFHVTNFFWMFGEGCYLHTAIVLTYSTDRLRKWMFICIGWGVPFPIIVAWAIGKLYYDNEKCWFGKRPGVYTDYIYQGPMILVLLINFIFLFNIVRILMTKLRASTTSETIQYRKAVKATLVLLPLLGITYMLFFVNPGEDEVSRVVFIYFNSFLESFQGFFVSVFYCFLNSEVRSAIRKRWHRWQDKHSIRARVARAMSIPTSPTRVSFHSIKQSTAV
Conditions: in words; cited from earlier work.

Experiment [5] relates to field potentials in hippocampus CA1 (CRF-R1 mediated). Kind of experiment: Extracellular field potentials in hippocampal slices (CA1). Type of experiment: cell-based, mice. An excerpt: A bipolar stimulating electrode was placed 100-300 μm rostral to the recording electrode and was used to stimulate excitatory afferents at 0.1 Hz.
The subject of experiment [6] is cAMP in Ltk- cells. Conditions: CRF 1 μM; Lovenberg et al. 1995; cited from earlier work.
For experiment [7], the system named is AMPAR-mediated EPSCs in VTA dopamine neurons. Briefly: AMPAR-mediated EPSCs, whole-cell voltage-clamp in VTA slices. Type of experiment: cell-based, mice. As to conditions: CRF 1 μM; voltage-clamp at -70 mV; n=4. As to the method:
VTA slices from 21-29 day old C57 mice (Charles River) were prepared as previously described (Ungless et al. (2001). Nature 411: 584-587). Briefly, mice were anesthetized with halothane and then decapitated. A block of tissue containing midbrain was sliced in the horizontal plane (230 μm) in ice-cold low Ca^2+ solution (containing in mM: 126 NaCl, 1.6 KCl, 1.2 NaH2PO4, 1.2 MgCl2, 0.625 CaCl2, 18 NaHCO3 and 11 glucose). Slices were transferred to a holding chamber containing artificial cerebrospinal fluid (ACSF, in mM: 126 NaCl, 1.6 KCl, 1.2 NaH2PO4, 1.2 MgCl2, 2.5 CaCl2, 18 NaHCO3 and 11 glucose) and equilibrated at 31-34° C. for at least 1 h. Picrotoxin (100 μM) was added to the ACSF for recording, to block GABAA receptor-mediated inhibitory postsynaptic potentials. All solutions were aerated with 95% O2/5% CO2, and perfused over the slice at a rate of 2.5 ml/min. […] Extracellular field potentials were recorded in the CA1 region and evoked by stimulating the stratum radiatum. […] AMPAR-mediated EPSCs were recorded at −70 mV; NMDAR-mediated EPSCs were recorded at +40 mV and measured 20 msec after the stimulation artifact when the EPSC is primarily NMDAR-mediated (11,13). Statistical significance was assessed using ANOVA on 5 min bins of EPSCs, and post hoc Fisher's LSD where appropriate. […]

[8] abbreviates: peptide bath applied 1 μM for 8 min, large Ih (CRF-responding) dopamine neurons.
Where [9] appears, read: peptide 1 μM for 8 min, small Ih (non-responding) dopamine neurons.

In the case of “ovine CRF: differs from human/rat CRF by 7 amino acids; binds CRF-R2, much lower affinity for CRF-BP”, the “potentiation of NMDAR-mediated EPSCs” value is “no potentiation” in experiment [1] (setting [8]) and “does not induce potentiation” in experiment [1] (peptide bath applied 1 μM for 8 min, large Ih (CRF-responding) dopamine neurons, listed as bovine CRF). Moreover, in experiment [2], the “affinity for CRF-BP” value was “much lower affinity”.

In the case of `N[C@@H](CCC(=O)O)C(=O)O` [glutamate], the EC50 (usually the concentration needed to bring the measured effect to its halfway point) in experiment [3] is around 1000 nM.

Take `COc1ccc2c(c1)CC[C@@H]1[C@@H]2CC[C@]2(C)[C@@H](NCCCCCCN3C(=O)C=CC3=O)CC[C@@H]12` [U-73122]: the “block of CRF-induced potentiation of NMDAR-mediated EPSCs” value (“block” below) is recorded as “no potentiation” in experiment [1] (U-73122 1 μM for 10 min before and during CRF application, n=5); “is blocked” in experiment [1] (U-73122 1 μM for 10 min before and during CRF application, n=5, listed as U73122).

For the molecule “Urocortin II: CRF-like peptide binding selectively to CRF-R2 (IVLSLDVPIGLLQILLEQARARAAREQATTNARILARVGHC; ends and bridges not checked; UniProt Q96RP3 72-112, looked up)”, the “affinity for CRF-R1” value in experiment [4] was “low affinity”. The “potentiation of NMDAR-mediated EPSCs” value in experiment [1] (setting [8]) was “no potentiation; also recorded: does not potentiate”. The “affinity for CRF-BP” value in experiment [2] is “low affinity”.

On to “CRF fragment (6-33): CRF fragment that competes with CRF at the CRF-BP; CRF-BP inhibitor (ISLDLTFHLLREVLEMARAEQLAQQAHS; Corticoliberin; UniProt P06850 159-186, looked up, fragment)”, for which the “block” value in experiment [1] (CRF fragment (6-33) 1 μM for 10 min co-applied with CRF, n=5) is reported as “did not potentiate; also recorded: inhibits”. The “affinity for CRF-BP” value in experiment [2] was “high-affinity binding”.

Consider “Urocortin: CRF-like peptide, possible endogenous CRF-R2 ligand, also binds CRF-BP (DNPSLSIDLTFHLLRTLLELARTQSQRERAEQNRIIFDSV; ends and bridges not checked; UniProt P55089 83-122, looked up)”, for which the “affinity for CRF-R1” value in experiment [4] is reported as “slightly lower affinity than CRF-R2”. In addition, the “potentiation of NMDAR-mediated EPSCs” value was “not” in experiment [1] (setting [9]) and “potentiation; also recorded: potentiates” in experiment [1] (setting [8]). Moreover, the “affinity for CRF-BP” value in experiment [2] is listed as “higher affinity than CRF”.

Turning to `CCCCN(CC)c1nc(C)nc2c1c(C)cn2-c1c(C)cc(C)cc1C` [CP-154,526], the “block” value in experiment [1] (CP-154,526 3 μM for 15 min, CRF 1 μM, n=6) is “failed to block; also recorded: does not block”. For the same molecule, in experiment [5] (CRF 1 μM plus 3 μM CP-154,526, n=5, P>0.05), the “hippocampal field potential vs. baseline with CRF plus antagonist” value is given as 82.9±6.9%.

With `Nc1ncnc2c1ncn2[C@@H]1O[C@@H]2CO[P@@](O)(=S)O[C@H]2[C@H]1O` [Rp-cAMPs], in experiment [1] (Rp-cAMPs 100 μM in patch pipette, CRF 1 μM, n=4), the “block” value is on record as “still observed a significant potentiation; also recorded: is not blocked”.

For the molecule “CRF: Corticotrophin-releasing factor, a 41 amino acid peptide; human/rat CRF (Tocris) (SEEPPISLDLTFHLLREVLEMARAEQLAQQAHSNRKLMEII)”, the “activation of cAMP” value in experiment [6] is “maximal activation”. In addition, the “NMDAR-mediated EPSC size vs. baseline” value in experiment [1] (CRF 100 nM, 25 mins after CRF onset, n=6, P<0.05) was 128.01±15.7%. Also, the “potentiation of NMDAR-mediated EPSCs” value in experiment [1] (setting [9]) was “did not observe any effect; also recorded: do not exhibit CRF-induced potentiation”; in experiment [1] (setting [8]) it was “large, slowly developing, and transient potentiation; also recorded: exhibit CRF-induced potentiation”. For the same molecule, in experiment [5] (CRF 1 μM, 15 mins after CRF onset, n=4, P<0.05), the “hippocampal field potential vs. baseline” value amounted to 143.0±7.7%. Besides, in experiment [7], the “potentiation of AMPAR-mediated EPSCs” value was “did not potentiate; also recorded: does not potentiate”.

Antisauvagine-30: the “NMDAR-mediated EPSC size vs. baseline with CRF in presence of antagonist” value in experiment [1] (Antisauvagine-30 30 nM, CRF 1 μM, 15 mins after CRF onset, n=3, P>0.05) is 113.9±17.7%. The “block” value in experiment [1] (Antisauvagine-30 1M for 15 min (so in the source), CRF 1 μM, n=5) is recorded as “inhibited; also recorded: blocks”.
